Reference: paper PMC8515607 (ACS Omega, 2021)
Read-outs that look alike come from different tables or passages of the source.

Columns and labels:
BALB/3T3 = assay: In vitro antiproliferative activity, SRB assay, normal fibroblasts BALB/3T3; assay type: cell-based; settings: Mus musculus, BALB/3T3, normal murine embryonic fibroblasts, 72 h, mean ± SD
Excerpt: (§1) The A549 and MCF7 cell lines were purchased from the European Collection of Authenticated Cell Cultures (ECACC, Salisbury, U.K., 86012804 and 86012803). The LoVo cell line was purchased from the American Type Culture Collection (CCL-229, ATCC, Manassas, VA), and LoVo/DX by courtesy of Prof. E. Borowski (Technical University of Gdańsk, Gdańsk, Poland). The BALB/3T3 cell line was purchased from the American Type Culture Collection (CCL-163, ATCC, Manassas, VA). All of the cell lines are maintained in the Institute of Immunology and Experimental Therapy (IIET), Wroclaw, Poland.
(§2) A549 cells were cultured in a mixture of OptiMEM and Roswell Park Memorial Institute (RPMI) 1640 (1:1) medium (IIET, Wroclaw, Poland), supplemented with 10% fetal bovine serum HyClone (GE Healthcare) and 2 mM L-glutamine (Sigma-Aldrich, Germany). MCF7 cells were cultured in a mixture of Eagle’s medium (IIET, Wroclaw, Poland), supplemented with 10% fetal bovine serum, 2 mM L-glutamine, and insulin (Sigma-Aldrich, Germany). LoVo and LoVo/DX cells were cultured in F12K medium (Corning), supplemented with 10% fetal bovine serum HyClone (GE Healthcare) and 0.1 μg/mL doxorubicin (Accord) for LoVo/DX. BALB/3T3 fibroblasts were cultured in Dulbecco’s medium (Gibco), supplemented with 10% fetal bovine serum (GE Healthcare) and 2 mM L-glutamine (Sigma-Aldrich, Germany). All culture media contained antibiotics: 100 U/mL penicillin (Polfa-Tarchomin, Poland) and 0.1 mg/mL streptomycin (Sigma-Aldrich, Germany). All cell lines were cultured during entire experiment in humid atmosphere at 37 °C and 5% CO2.
(§3) All cell lines were exposed to each tested agent at different concentrations in the range 100–0.00001 μg/mL for 72 h. The cells were also exposed to the reference drug cisplatin (Teva Pharmaceuticals, Poland) and doxorubicin (Accord Healthcare Limited, U.K.). Additionally, all cell lines were exposed to dimethyl sulfoxide (DMSO) (solvent used for tested compounds) (POCh, Poland) at concentrations corresponding to those present in tested agents dilutions. After 72 h, sulforhodamine B (SRB) assay was performed.[57]
(§4) After 72 h of incubation with the tested compounds, the cells were fixed in situ by gently adding cold 50% trichloroacetic acid (TCA) (POCh, Poland) and were incubated at room temperature for 1 h. Then, the wells were washed four times with water and air-dried. Next, 0.1% solution of sulforhodamine B (Sigma-Aldrich, Germany) in 1% acetic acid (POCh, Poland) was added to each well and the plates were incubated at room temperature for 0.5 h. After incubation time, unbound dye was removed by washing plates four times with 1% acetic acid, whereas stain bound to cells was solubilized with 10 mM Tris base (Sigma-Aldrich, Germany). Absorbance of each solution was read at Synergy H4 Hybrid Multi-Mode Microplate Reader (BioTek Instruments) at the 540 nm wavelength.
(§5) IC50 values were calculated in Excel sheet using formulas adapted by Mateusz Psurski fromCheburator 0.4, Dmitry Nevozhay software (version 1.2.0 software by Dmitry Nevozhay, 2004–2014, http://www.cheburator.nevozhay.com, freely available) for each experiment.[58] Compounds at each concentration were tested in triplicate in a single experiment, and each experiment was repeated at least three times independently.

A549 = assay: cells; assay type: cell-based, human; settings: for IC50: Homo sapiens, A549, 72 h, read-out: A549 IC50 (nM), 72 h exposure, SRB, mean ± SD; for A549 SI: selectivity index = IC50 BALB/3T3 / IC50 A549
Excerpt: as §1, §2, §3, §4, §5

LoVo = assay: cells; assay type: cell-based, human; settings: for IC50: Homo sapiens, LoVo, 72 h, read-out: LoVo IC50 (nM); for LoVo SI: selectivity index = IC50 BALB/3T3 / IC50 LoVo
Excerpt: as §1, §2, §3, §4, §5

LoVo/DX = assay: cells; assay type: cell-based, human; settings: for LoVo/DX RI: resistance index = IC50 LoVo/DX / IC50 LoVo; for LoVo/DX SI: selectivity index = IC50 BALB/3T3 / IC50 LoVo/DX
Excerpt: as §1, §2, §3, §4, §5

MCF-7 = assay: cells; assay type: cell-based, human; settings: for IC50: Homo sapiens, MCF7, 72 h, read-out: MCF-7 IC50 (nM); for MCF-7 SI: selectivity index = IC50 BALB/3T3 / IC50 MCF-7
Excerpt: as §1, §2, §3, §4, §5

[1] = Homo sapiens, LoVo/DX, 72 h, read-out: LoVo/DX IC50 (nM), 72 h exposure, SRB, mean ± SD
[2] = read-out: LoVo/DX IC50, 72 h exposure, SRB, mean ± SD

| Compound | IC50 (BALB/3T3) | IC50 (A549) | A549 SI (A549) | IC50 (LoVo) | LoVo SI (LoVo) | IC50 (LoVo/DX; [1]) | LoVo/DX RI (LoVo/DX) | LoVo/DX SI (LoVo/DX) | IC50 (MCF-7) | MCF-7 SI (MCF-7) | IC50 (LoVo/DX; [2]) |
| --- | --- | --- | --- | --- | --- | --- | --- | --- | --- | --- | --- |
| CNc1ccc2c(cc1=O)[C@@H](NC(C)=O)CCc1cc(OC)c(OC)c(OC)c1-2 [Compound 2, 10-N-methylaminocolchicine] | 6 ± 2.3 nM | 4.4 ± 0.6 nM | 1.4 | 5.4 ± 0.7 nM | 1.1 | 230 ± 17 nM | 43 | <0.1 | 3.5 ± 0.7 nM | 1.7 | – |
| CNc1ccc2c(cc1=O)[C@@H](N)CCc1cc(OC)c(OC)c(OC)c1-2 [Compound 3, N-deacetyl-10-methylamino-10-demethoxycolchicine] | 16 ± 2.1 nM | 12 ± 2.3 nM | 1.3 | 8.9 ± 1.4 nM | 1.8 | 55 ± 13 nM | 6.2 | 0.3 | 8.1 ± 1.3 nM | 2.0 | – |
| CCCc1cn([C@H]2CCc3cc(OC)c(OC)c(OC)c3-c3ccc(NC)c(=O)cc32)nn1 [Compound 6] | 24 ± 9.3 nM | 15 ± 3.7 nM | 1.6 | 13 ± 1.9 nM | 1.8 | 85 ± 21 nM | 6.5 | 0.3 | 11 ± 1.2 nM | 2.2 | – |
| CNc1ccc2c(cc1=O)[C@@H](n1cc(CO)nn1)CCc1cc(OC)c(OC)c(OC)c1-2 [Compound 9] | 14 ± 2.1 nM | 12 ± 2.1 nM | 1.2 | 11 ± 5.6 nM | 1.3 | 1500 ± 210 nM | 140 | <0.1 | 6.8 ± 1 nM | 2.1 | – |
| CNc1ccc2c(cc1=O)[C@@H](n1cc(CCl)nn1)CCc1cc(OC)c(OC)c(OC)c1-2 [Compound 10] | 13 ± 3 nM | 13 ± 3.3 nM | 1.0 | 12 ± 2.4 nM | 1.1 | 95 ± 24 nM | 7.9 | 0.1 | 8.6 ± 3.2 nM | 1.5 | – |
| CNc1ccc2c(cc1=O)[C@@H](n1cc(CCO)nn1)CCc1cc(OC)c(OC)c(OC)c1-2 [Compound 11] | 18 ± 7.1 nM | 14 ± 2 nM | 1.3 | 14 ± 6.5 nM | 1.3 | 1700 ± 290 nM | 120 | <0.1 | 13 ± 1.6 nM | 1.4 | – |
| CNc1ccc2c(cc1=O)[C@@H](n1cc(C(C)(C)O)nn1)CCc1cc(OC)c(OC)c(OC)c1-2 [Compound 12] | 50 ± 4.5 nM | 37 ± 4.2 nM | 1.4 | 19 ± 3.9 nM | 2.6 | 2400 ± 550 nM | 130 | <0.1 | 13 ± 3.4 nM | 3.8 | – |
| CNc1ccc2c(cc1=O)[C@@H](n1cc(C3(O)CCCCC3)nn1)CCc1cc(OC)c(OC)c(OC)c1-2 [Compound 13] | 100 ± 33 nM | 94 ± 30 nM | 1.1 | 65 ± 33 nM | 1.5 | 1700 ± 160 nM | 26 | 0.1 | 88 ± 50 nM | 1.1 | – |
| CNc1ccc2c(cc1=O)[C@@H](n1cc(-c3ccccc3)nn1)CCc1cc(OC)c(OC)c(OC)c1-2 [Compound 14] | 20 ± 7.6 nM | 13 ± 2.6 nM | 1.5 | 10 ± 0.8 nM | 2.0 | < 30 nM | 2.7 | 0.7 | 10 ± 1.8 nM | 2.0 | 27 ± 7.6 nM |
| CNc1ccc2c(cc1=O)[C@@H](n1cc(-c3ccc(Cl)cc3)nn1)CCc1cc(OC)c(OC)c(OC)c1-2 [Compound 15] | 92 ± 20 nM | 39 ± 2.7 nM | 2.4 | 47 ± 22 nM | 2.0 | 150 ± 35 nM | 3.2 | 0.6 | 35 ± 14 nM | 2.6 | – |
| CNc1ccc2c(cc1=O)[C@@H](n1cc(-c3ccccn3)nn1)CCc1cc(OC)c(OC)c(OC)c1-2 [Compound 16] | 41 ± 4 nM | 35 ± 10 nM | 1.2 | 27 ± 14 nM | 1.5 | 210 ± 65 nM | 7.8 | 0.2 | 28 ± 12 nM | 1.5 | – |
| CNc1ccc2c(cc1=O)[C@@H](n1cc(COCc3ccccc3)nn1)CCc1cc(OC)c(OC)c(OC)c1-2 [Compound 17] | 11 ± 7.8 nM | 6.9 ± 5.3 nM | 1.6 | 5.7 ± 4.9 nM | 1.9 | 84 ± 42 nM | 15 | 0.1 | 6.1 ± 4.8 nM | 1.8 | – |
| CNc1ccc2c(cc1=O)[C@@H](n1cc(C(=O)O)nn1)CCc1cc(OC)c(OC)c(OC)c1-2 [Compound 20] | 2100 ± 750 nM | 1300 ± 330 nM | 1.6 | 1200 ± 350 nM | 1.8 | 3400 ± 890 nM | 2.8 | 0.6 | 1200 ± 390 nM | 1.8 | – |
| CNc1ccc2c(cc1=O)[C@@H](n1nnc(C(=O)O)c1C(=O)O)CCc1cc(OC)c(OC)c(OC)c1-2 [Compound 23] | 1200 ± 14 nM | 1000 ± 240 nM | 1.2 | 860 ± 190 nM | 1.4 | 2900 ± 390 nM | 3.4 | 0.4 | 990 ± 82 nM | 1.2 | – |
| CCCCCCCCCCCCCCCC(=O)OCc1cn([C@H]2CCc3cc(OC)c(OC)c(OC)c3-c3ccc(NC)c(=O)cc32)nn1 [Compound 24] | 54 ± 20 nM | 16 ± 5.2 nM | 3.4 | 19 ± 7 nM | 2.8 | 3300 ± 280 nM | 170 | <0.1 | 11 ± 0.7 nM | 4.9 | – |
| CNc1ccc2c(cc1=O)[C@@H](n1cc(COC(=O)CCC(F)(F)F)nn1)CCc1cc(OC)c(OC)c(OC)c1-2 [Compound 25] | 6.7 ± 2.4 nM | 1.3 ± 0.2 nM | 5.2 | 2.2 ± 1.2 nM | 3.0 | 350 ± 56 nM | 160 | <0.1 | 1.1 ± 0.4 nM | 6.1 | – |
| CNc1ccc2c(cc1=O)[C@@H](n1cc(COC(=O)CCNC(=O)OC(C)(C)C)nn1)CCc1cc(OC)c(OC)c(OC)c1-2 [Compound 26] | 6.4 ± 1.4 nM | 2.4 ± 0.7 nM | 2.7 | 2.9 ± 1.2 nM | 2.2 | 700 ± 120 nM | 240 | <0.1 | 1.1 ± 0.1 nM | 5.8 | – |
| CNc1ccc2c(cc1=O)[C@@H](n1cc(COC(=O)c3ccccc3Cl)nn1)CCc1cc(OC)c(OC)c(OC)c1-2 [Compound 27] | 8.7 ± 2 nM | 2.9 ± 0.6 nM | 3.0 | 4.7 ± 1.7 nM | 1.9 | < 100 nM | 19 | 0.1 | 2.4 ± 0.8 nM | 3.6 | 89 ± 18 nM |
